Like-named read-outs stand apart in the source and are kept apart here.
What was measured:
[1] = biological target: recombinant human Mcl-1 (residues 171-327) / Bim interaction (Homo sapiens (Human), UniProt Q07820); assay: biochemical; format: binding; details: read-out: Mcl-1 HTRF IC50
[2] = test system: human multiple myeloma cell line, OPM-2; assay: Cell viability assay (OPM-2 10 FBS), CellTiter-Glo; format: cell-based
Summary of the method: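 Cells were seeded at 3000 cells/well in RPMI 1640 with 10% FBS and exposed to serially diluted compounds for 16 h at 37 °C, 5% CO2.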

[3] = TR-FRET, Mcl-1(171-327) / biotin-Bim (51-76)
[4] = read-out: OPM-2 10% FBS IC50 IP, OPM-2 cells, 10% FBS, 16 h, CellTiter-Glo
[5] = Homo sapiens, OPM-2, 16 h, read-out: OPM-2 10% FBS IC50 IP, OPM-2 cells, 10% FBS, 16 h, CellTiter-Glo
[6] = 0.1 nM Mcl-1(171-327), 0.05 nM biotin-Bim (51-76)
[7] = Homo sapiens, OPM-2, 16 h, read-out: OPM-2 10% FBS IC50 IP, OPM-2 cells, 10% FBS, 16 h incubation

Sequence of recombinant human Mcl-1 (residues 171-327) / Bim interaction (Q07820 171-327): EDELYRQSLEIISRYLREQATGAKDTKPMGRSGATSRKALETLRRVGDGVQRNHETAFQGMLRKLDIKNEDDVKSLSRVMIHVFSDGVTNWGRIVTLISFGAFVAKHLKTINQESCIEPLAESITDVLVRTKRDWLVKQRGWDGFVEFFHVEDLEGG

Row | Structure (SMILES) | IC50 [1, 3] | IC50 [2, 4] | IC50 [2, 5] | IC50 [1, 6] | IC50 [2, 7]
1 | COCCN(C)C(=O)C[C@]1(O)CCC[C@H](C)[C@@H](C)S(=O)(=O)NC(=O)c2ccc3c(c2)N(C[C@@H]2CC[C@H]21)C[C@@]1(CCCc2cc(Cl)ccc21)CO3 [Example 100141, 2-((1S,3′R,6′R,7′R,11′S,12′R)-6-chloro-7′-hydroxy-11′,12′-dimethyl-13′,13′-dioxido-15′-oxo-3,4-dihydro-2H-spiro[naphthalene-1,22′-[20]oxa[13]thia[1,14]diazatetracyclo [14.7.2.0~3,6~.0~19,24~]pentacosa[16,18,24]trien]-7′-yl)-N-(2-methoxyethyl)-N-methylacetamide] | 1.06 nM | 1370 nM |  |  | 
2 | CO[C@]1(CCN(C)C)/C=C/C[C@H](C)[C@@H](C)S(=O)(=O)NC(=O)c2ccc3c(c2)N(C[C@@H]2CC[C@H]21)C[C@@]1(CCCc2cc(Cl)ccc21)CO3 [Example 100381, (1S,3′R,6′R,7′R,8′E,11′S,12′R)-6-chloro-7′-(2-(dimethylamino)ethyl)-7′-methoxy-11′,12′-dimethyl-3,4-dihydro-2H,15′H-spiro[naphthalene-1,22′-[20]oxa[13]thia[1,14]diazatetracyclo [14.7.2.0~3,6~.0~19,24~]pentacosa[8,16,18,24]tetraen]-15′-one 13′,13′-dioxide] | 0.328 nM |  | 2910 nM |  | 
3 | C[C@@H]1[C@@H](C)CCC[C@@]2(OCCS2)[C@@H]2CC[C@H]2CN2C[C@@]3(CCCc4cc(Cl)ccc43)COc3ccc(cc32)C(=O)NS1(=O)=O [Example 100115, (1S,3′R,6′R,7′S,11′S,12′R)-6-chloro-11′,12′-dimethyl-3,4-dihydro-2H,15′H-dispiro[naphthalene-1,22′-[20]oxa[13]thia[1,14]diazatetracyclo [14.7.2.0~3,6~.0~19,24~]pentacosa[16,18,24]triene-7′,2″-[1,3]oxathiolan]-15′-one 13′,13′-dioxide] | 4.49 nM |  | 2840 nM |  | 
4 | C[C@@H]1[C@@H](C)CC2C=CC[C@@](O)(C2)[C@@H]2CC[C@H]2CN2C[C@@]3(CCCc4cc(Cl)ccc43)COc3ccc(cc32)C(=O)NS1(=O)=O (stereo in doubt) [Example 100058, (1S,3′R,6′R,7′R,11′S,13′S,14′R)-6-chloro-7′-hydroxy-13′,14′-dimethyl-3,4-dihydro-2H,17′H-spiro[naphthalene-1,24′-[22]oxa[15]thia[1,16]diazapentacyclo [16.7.2.1~7,11~.0~3,6~.0~21,26~]octacosa [9,18,20,26]tetraen]-17′-one 15′,15′-dioxide] | 1.76 nM |  | 3360 nM |  | 
5 | COC1CCN(C[C@]2(OC)/C=C/C[C@H](C)[C@@H](C)S(=O)(=O)NC(=O)c3ccc4c(c3)N(C[C@@H]3CC[C@H]32)C[C@@]2(CCCc3cc(Cl)ccc32)CO4)CC1 [Example 117, (1S,3′R,6′R,7′S,8′E,11′S,12′R)-6-chloro-7′-methoxy-7′-((4-methoxy-1-piperidinyl)methyl)-11′,12′-dimethyl-3,4-dihydro-2H,15′H-spiro[naphthalene-1,22′-[20]oxa[13]thia[1,14]diazatetracyclo [14.7.2.0~3,6~.0~19,24~]pentacosa[8,16,18,24]tetraen]-15′-one 13′,13′-dioxide] |  |  |  | 0.352 nM | 358 nM
6 | CO[C@@]1(CN2CCN(C3COC3)CC2)/C=C/C[C@H](C)[C@@H](C)S(=O)(=O)NC(=O)c2ccc3c(c2)N(C[C@@H]2CC[C@H]21)C[C@@]1(CCCc2cc(Cl)ccc21)CO3 [Example 250, (1S,3′R,6′R,7′S,8′E,11′S,12′R)-6-chloro-7′-methoxy-11′,12′-dimethyl-7′-((4-(3-oxetanyl)-1-piperazinyl)methyl)-3,4-dihydro-2H,15′H-spiro[naphthalene-1,22′-[20]oxa[13]thia[1,14]diazatetracyclo [14.7.2.0~3,6~.0~19,24~]pentacosa[8,16,18,24]tetraen]-15′-one 13′,13′-dioxide] |  |  |  | 0.071 nM | 47 nM
7 | C[C@@H]1[C@@H](C)C/C=C/[C@@](O)(CN2CCN3CCCC[C@@H]3C2)[C@@H]2CC[C@H]2CN2C[C@@]3(CCCc4cc(Cl)ccc43)COc3ccc(cc32)C(=O)NS1(=O)=O (racemic) [Example 236] |  |  |  | 0.097 nM | 87 nM
8 | C[C@@H]1[C@@H](C)C/C=C/[C@@](O)(CC(=O)N2CCCCC2)[C@@H]2CC[C@H]2CN2C[C@@]3(CCCc4cc(Cl)ccc43)COc3ccc(cc32)C(=O)NS1(=O)=O [Example 100258, (1S,3′R,6′R,7′S,8′E,11′S,12′R)-6-chloro-7′-hydroxy-11′,12′-dimethyl-7′-(2-oxo-2-(1-piperidinyl)ethyl)-3,4-dihydro-2H,15′H-spiro[naphthalene-1,22′-[20]oxa[13]thia[1,14]diazatetracyclo [14.7.2.0~3,6~.0~19,24~]pentacosa[8,16,18,24]tetraen]-15′-one 13′,13′-dioxide] | 0.553 nM | 519 nM |  |  | 
9 | CO[C@]1(CN2CCN3CCOC[C@@H]3C2)/C=C/C[C@H](C)[C@@H](CC2CCC2)S(=O)(=O)NC(=O)c2ccc3c(c2)N(C[C@@H]2CC[C@H]21)C[C@@]1(CCCc2cc(Cl)ccc21)CO3 [Example 38] |  |  |  | 0.342 nM | 489 nM
10 | COCC[C@@H]1[C@@H](C)C/C=C/[C@@](CN2CCN(C)CC2)(OC)[C@@H]2CC[C@H]2CN2C[C@@]3(CCCc4cc(Cl)ccc43)COc3ccc(cc32)C(=O)NS1(=O)=O [Example 178, (1S,3′R,6′R,7′R,8′E,11′S,12′R)-6-chloro-7′-methoxy-12′-(2-methoxyethyl)-11′-methyl-7′-((4-methyl-1-piperazinyl)methyl)-3,4-dihydro-2H,15′H-spiro[naphthalene-1,22′-[20]oxa[13]thia[1,14]diazatetracyclo [14.7.2.0~3,6~.0~19,24~]pentacosa[8,16,18,24]tetraen]-15′-one 13′,13′-dioxide] |  |  |  | 0.177 nM | 71 nM
11 | CO[C@]1(CC(=O)O)/C=C/C[C@H](C)[C@@H](C)S(=O)(=O)NC(=O)c2ccc3c(c2)N(C[C@@H]2CC[C@H]21)C[C@@]1(CCCc2cc(Cl)ccc21)CO3 [Example 100306, ((1S,3′R,6′R,7′R,8′E,11′S,12′R)-6-chloro-7′-methoxy-11′,12′-dimethyl-13′,13′-dioxido-15′-oxo-3,4-dihydro-2H-spiro[naphthalene-1,22′-[20]oxa[13]thia[1,14]diazatetracyclo [14.7.2.0~3,6~.0~19,24~]pentacosa[8,16,18,24]tetraen]-7′-yl)acetic acid] | 0.124 nM |  | 278 nM |  | 
12 | COC(=O)CN1CCN(C[C@]2(OC)/C=C/C[C@H](C)[C@@H](C)S(=O)(=O)NC(=O)c3ccc4c(c3)N(C[C@@H]3CC[C@H]32)C[C@@]2(CCCc3cc(Cl)ccc32)CO4)CC1 [Example 269, methyl (4-(((1S,3′R,6′R,7′S,8′E,11′S,12′R)-6-chloro-7′-methoxy-11′,12′-dimethyl-13′,13′-dioxido-15′-oxo-3,4-dihydro-2H-spiro[naphthalene-1,22′-[20]oxa[13]thia[1,14]diazatetracyclo[14.7.2.0-3,6˜.0˜19,24˜]pentacosa[8,16,18,24]tetraen]-7′-yl)methyl)-1-piperazinyl)acetate] |  |  |  | 0.104 nM | 86 nM
13 | C[C@@H]1[C@@H](C)C/C=C/[C@](O)(CN(C)CCO)[C@@H]2CC[C@H]2CN2C[C@@]3(CCCc4cc(Cl)ccc43)COc3ccc(cc32)C(=O)NS1(=O)=O [Example 129] |  |  |  | 1.69 nM | 2630 nM
14 | C=CC[C@]1(OC)/C=C/C[C@H](C)[C@@H](C)S(=O)(=O)NC(=O)c2ccc3c(c2)N(C[C@@H]2CC[C@H]21)C[C@@]1(CCCc2cc(Cl)ccc21)CO3 [Example 100397, (1S,3′R,6′R,7′S,8′E,11′S,12′R)-6-chloro-7′-methoxy-11′,12′-dimethyl-7′-(2-propen-1-yl)-3,4-dihydro-2H,15′H-spiro[naphthalene-1,22′-[20]oxa[13]thia[1,14]diazatetracyclo [14.7.2.0~3,6~.0~19,24~]pentacosa[8,16,18,24]tetraen]-15′-one 13′,13′-dioxide] | 0.198 nM |  | 404 nM |  | 
15 | CCCO[C@]1(C=O)/C=C/C[C@H](C)[C@@H](C)S(=O)(=O)NC(=O)c2ccc3c(c2)N(C[C@@H]2CC[C@H]21)C[C@@]1(CCCc2cc(Cl)ccc21)CO3 [Example 100602, (1S,3′R,6′R,7′R,8′E,11′S,12′R)-6-chloro-11′,12′-dimethyl-15′-oxo-7′-propoxy-3,4-dihydro-2H-spiro[naphthalene-1,22′-[20]oxa[13]thia[1,14]diazatetracyclo [14.7.2.0~3,6~.0~19,24~]pentacosa[8,16,18,24]tetraene]-7′-carbaldehyde 13′,13′-dioxide] | 0.8 nM |  | 2330 nM |  | 
16 | C[C@@H]1[C@@H](C)CCCC(CN2CCOCC2)(CN2CCOCC2)[C@@H]2CC[C@H]2CN2C[C@@]3(CCCc4cc(Cl)ccc43)COc3ccc(cc32)C(=O)NS1(=O)=O [Example 100452, (1S,3′R,6′R,11′S,12′R)-6-chloro-11′,12′-dimethyl-7′,7′-bis(4-morpholinylmethyl)-3,4-dihydro-2H,15′H-spiro[naphthalene-1,22′-[20]oxa[13]thia[1,14]diazatetracyclo [14.7.2.0~3,6~.0~19,24~]pentacosa[16,18,24]trien]-15′-one 13′,13′-dioxide] | 0.077 nM |  | 157 nM |  | 

From patent publication US10821115B2, “Compounds that inhibit Mcl-1 protein” (priority 2017, dated 2020)
